Read-outs that look alike come from different tables or passages of the source.
What was measured:
γH2AX [1] = experiment: γH2AX immunofluorescence staining of bone marrow; format: in vivo, Fischer 344 rats
Fischer 344 rats [2] = conditions: rat, in vivo
Fischer 344 rats [3] = conditions: rat, in vivo; remark: listed apart in the source
γH2AX [4] = experiment: γH2AX immunofluorescence staining of kidney sections; format: in vivo, Fischer 344 rats; conditions: five imaged fields, one rat/sex/group
rats = conditions: one-tenth the mouse LD10, ref NationalTechnicalInformationService; cited from earlier work
[5] = design: species or system Fischer 344 rats; conditions: in vivo, po
Fischer 344 rats [6] = experiment: Kidney and urinary bladder histopathology; format: in vivo; conditions: 6 animals
Fischer 344 rats [7] = conditions: rat, in vivo; remark: listed apart in the source
dogs = conditions: two times the mouse LD50; ref NationalTechnicalInformationService; cited from earlier work
Fischer 344 rats [8] = experiment: Clinical signs and body weights; format: in vivo; conditions: n=6/sex/group
Fischer 344 rats [9] = experiment: Mesna as mitigating co-treatment of batracylin-induced toxicity; conditions: male rats, mesna study, Day 5
[10] = oral batracylin 590 mg/m^2; ref Ames et al., 1991; cited from earlier work
[11] = male, Fischer 344, rat, 16 mg/kg
[12] = male, Fischer 344, rat, 32 mg/kg

## Nc1ccc2c(c1)CN1C(=O)c3ccccc3C1=N2 [batracylin, 8-aminoisoindolo[1,2-b]quinazolin-12(10H)-one]
γH2AX [1]; 4 of 6 low-dose females (16 mg/kg)
  Bone marrow cellular nuclei γH2AX positive: Less than 0.5%
γH2AX [1]; all 6 low-dose males (16 mg/kg)
  Bone marrow cellular nuclei γH2AX positive: Less than 0.5%
Fischer 344 rats [2]
  Protein casts, severity: mild to moderate
  Tubular dilation, severity: mild
  Urothelial atrophy, severity: mild to moderate
  Urothelial vacuolation, severity: minimal to mild
Fischer 344 rats [3]
  Incidence of visibly red urine: 4 of the 6
γH2AX [4]; female rat, 16 mg/kg batracylin
  Nuclei γH2AX positive, renal cortex: 22%
γH2AX [4]; female rat, 32 mg/kg batracylin
  Nuclei γH2AX positive, renal cortex: 15%
γH2AX [4]; male rat, 16 mg/kg batracylin
  Nuclei γH2AX positive, renal cortex: 13%
γH2AX [4]; male rat, 32 mg/kg batracylin
  Nuclei γH2AX positive, renal cortex: 29%
rats
  Toxicity of oral batracylin in rats: lethal
[5]; [11]
  AUC(0-inf): 118 ng·h/mL
  AUC(0-t): 98.3 ng·h/mL
  Cmax: 11.1 ng/mL
  Tmax: 4 h
  k el: 4.83e-05 s⁻¹
[5]; male, Fischer 344, rat, 16 mg/kg, Half-life
  half-life: 4 h
[5]; [12]
  AUC(0-inf): 144 ng·h/mL
  AUC(0-t): 112 ng·h/mL
  Cmax: 11.8 ng/mL
  Tmax: 4 h
  half-life: 11.1 h
  k el: 1.72e-05 s⁻¹
[5]; male, Fischer 344, rat, 32 mg/kg, Half-life
  half-life: 11 h
[5]; male, Fischer 344, rat, 32 mg/kg, half-life
  half-life: 4 to 11 h
Fischer 344 rats [6]; 16 mg/kg/day po x4 days, females
  Kidney: non-inflammatory tubular degeneration, severity (incidence): Mild (4), Moderate (2)
Fischer 344 rats [6]; 16 mg/kg/day po x4 days, males
  Kidney: non-inflammatory tubular degeneration, severity (incidence): Mild (6)
Fischer 344 rats [6]; 32 mg/kg/day po x4 days, females
  Kidney: non-inflammatory tubular degeneration, severity (incidence): Moderate (4), Marked (2)
Fischer 344 rats [6]; 32 mg/kg/day po x4 days, males
  Kidney: non-inflammatory tubular degeneration, severity (incidence): Moderate (6)
Fischer 344 rats [7]
  Lymphocytes, % of the total WBC population: 19%
  Neutrophils, % of the total WBC population: 78%
dogs
  Toxicity of oral batracylin in dogs: only slight toxicity
Fischer 344 rats [8]; Day 3, high-dose group (32 mg/kg/day)
  Rats displaying evidence of toxicity (clinical signs): all of the rats
Fischer 344 rats [8]; Day 3, low-dose group (16 mg/kg/day)
  Rats displaying evidence of toxicity (clinical signs): a third of the rats
Fischer 344 rats [9]
  Non-inflammatory tubular degeneration, severity: moderate
  Tubular epithelial regeneration, severity: mild

## N-acetylbatracylin [NAB]
[10]
  Systemic levels of NAB, times greater in the rat than in the mouse: approximately 9 times
[5]; rat
  increase of AUC0-24 hr for a 2-fold increase in dose: 2.9 fold
[5]; rat, 16 mg/kg
  AUC0-24: 15150 ng·h/mL
  AUC0-∞: 15240 ng·h/mL
  Cmax: 2507 ng/mL
  Kel: 0.755 h⁻¹
  Tmax: 4 h
[5]; rat, 32 mg/kg
  AUC0-24: 44620 ng·h/mL
  AUC0-∞: 45170 ng·h/mL
  Cmax: 7214 ng/mL
  Kel: 0.108 h⁻¹
  NAB AUC0-24 hr, times greater than the corresponding value for batracylin: 398 times
  NAB Cmax, times greater than the corresponding value for batracylin: 611 times
  Tmax: 4 h

From publication PMC4382466 (Toxicologic pathology, 2014)
